# US20180116993A1, “MODULATORS OF FARNESOID X RECEPTOR AND METHODS FOR THE USE THEREOF” (XIAMEN UNIVERSITY, priority 2015, published 2018)
# Marks after values point to notes of the source that are not given here.
# How the values were obtained:
# db/db mice = experiment: Serum/blood metabolic parameters in high-fat diet fed db/db mice; type: in vivo, mouse; conditions: 50 mg/kg for 7 days
# Description: (§1) KK-Ay mice (KK/Upj-Ay/J) are animal models with moderate obese and diabetes with insulin resistance. KK-Ay mice develop hyperglycemia, hyperinsulinemia, glucose intolerance and obesity as well as fat accumulation in liver by eight weeks of age. Pancreatic islets are hypertrophied and the β-cells are degranulated. db/db mice (BKS.Cg-Dockr+/+ Lepr^db/Jnju) are animal models of type II diabetes. They have the phenotype of insulin resistance. These model mice were used to detect the functions of our compounds on metabolic diseases.
# 8-10 weeks age mice were maintained as example 4, and fed with high-fat diet (Research Diets, D12492). Mice were i.p. injected with compounds once daily for 7, 10, 11 or 14 days as indicated in each table. After the last compounds injection, mice were fasted for 6 hours with free access to water, and then sacrificed. Part of each liver was fixed in 4% paraformaldehyde for H&E staining, and other liver tissues were stored in liquid nitrogen for enzyme activity measurement and gene expression analysis by RT-PCR. The serums were collected to measure metabolic parameters, including serum glucose, insulin, cholesterol, free fatty acid (FFA) and triglyceride levels. Serum glucose was analyzed using glucose oxidase method (Applygen, Beijing, China). The blood glucose in Table 11 was measured with Berenger blood glucose test strips (B/BRAUN, German) from blood by cutting mice tail after the 6th injection and following fast for 16 hours. Serum cholesterol and FFA were analyzed using Cholesterol Assay Kit and FFA Assay Kit (Bioassay Systems, USA; Nanjing Jiancheng Bioengineering Institute, China; FFA ELISA, R&D, USA), respectively. Serum triglyceride was analyzed using Triglyceride Assay Kit (Bioassay Systems, USA; WAKO Chemicals Inc., Japan; Applygen, Beijing, China). Liver triglyceride was analyzed using Tissue triglyceride assay kit (Applygen, Beijing, China). Serum insulin levels were measured by the Ultra Sensitive Mouse Insulin ELISA Kit (Crystal Chem. Inc., USA). RNA was isolated using Tissue RNA kit (Omega Bio-Tek, GA). The first strand cDNA were obtained by TAKARA reverse transcription kit. Real-time quantitative PCR were performed on a CFX96™ Real-Time PCR Detection System (Bio-Rad) using SYBR Premix Ex Taq™ (TAKARA). Relative mRNA expression levels were normalized to actin levels. […]
# [1] = test system: mouse embryonic fibroblasts (MEFs); experiment: GSH levels in mouse embryonic fibroblasts (MEFs); type: cell-based; conditions: 20 μM, 24 hours, vehicle 31 ± 6
# Description: The reduced glutathione (GSH) is a natural antioxidant in cells and plays important function responding the oxidative stress. The GSH levels will decrease with age, infection, poisoning, exogenous toxins and oxidative stress. The Sestrin2 (Sesn2) gene encodes a conserved antioxidant protein that is induced on oxidative stress and protects cells against reactive oxygen species. SOD2 is an antioxidant enzyme. The antioxidants are defense system for organ to prevent damage by free radical. In this example, the mouse embryonic fibroblasts (MEFs) were treated with compounds for 24 hours, and the GSH levels were analyzed using GSH kit (Nanjing Jiancheng Engineering Institute, China). […] Correspondingly, the expression levels of the antioxidant genes such as SOD2 and SESN2 increased in compounds treated MEFs (Table 26 and Table 28).
# [2] = Clearance of superoxide anion radical in vitro; conditions: method of CN 102813683 B, p<0.01
# KK-Ay mice = experiment: Serum metabolic parameters in high-fat diet fed diabetic KK-Ay mice; type: in vivo, mouse; conditions: 10 mg/kg for 14 days, vehicle 253 ± 11
# Description: as §1
# 8-10 weeks age mice were maintained as example 4, and fed with high-fat diet (Research Diets, D12492). Mice were i.p. injected with compounds once daily for 7, 10, 11 or 14 days as indicated in each table. After the last compounds injection, mice were fasted for 6 hours with free access to water, and then sacrificed. Part of each liver was fixed in 4% paraformaldehyde for H&E staining, and other liver tissues were stored in liquid nitrogen for enzyme activity measurement and gene expression analysis by RT-PCR. The serums were collected to measure metabolic parameters, including serum glucose, insulin, cholesterol, free fatty acid (FFA) and triglyceride levels. Serum glucose was analyzed using glucose oxidase method (Applygen, Beijing, China). The blood glucose in Table 11 was measured with Berenger blood glucose test strips (B/BRAUN, German) from blood by cutting mice tail after the 6th injection and following fast for 16 hours. Serum cholesterol and FFA were analyzed using Cholesterol Assay Kit and FFA Assay Kit (Bioassay Systems, USA; Nanjing Jiancheng Bioengineering Institute, China; FFA ELISA, R&D, USA), respectively. Serum triglyceride was analyzed using Triglyceride Assay Kit (Bioassay Systems, USA; WAKO Chemicals Inc., Japan; Applygen, Beijing, China). Liver triglyceride was analyzed using Tissue triglyceride assay kit (Applygen, Beijing, China). Serum insulin levels were measured by the Ultra Sensitive Mouse Insulin ELISA Kit (Crystal Chem. Inc., USA). RNA was isolated using Tissue RNA kit (Omega Bio-Tek, GA). The first strand cDNA were obtained by TAKARA reverse transcription kit. Real-time quantitative PCR were performed on a CFX96™ Real-Time PCR Detection System (Bio-Rad) using SYBR Premix Ex Taq™ (TAKARA). Relative mRNA expression levels were normalized to actin levels.
# [3] = test system: mice with APAP-induced liver injury; experiment: Acetaminophen (APAP)-induced liver injury in mouse; type: in vivo
# Description: Methods: Acetaminophen (APAP)-induced liver injury in mouse is a commonly used model to study drugs protecting liver. Overdose of APAP causes liver injury by inducing the production of reactive oxygen species and reactive nitrogen species, and excessive consumption of reductive substances such as antioxidant glutathione (GSH), leading to the reduction of GSH in vivo, and the following upregulation of the activities of the aspartate aminotransferase (AST), the alanine aminotransferase (ALT) and the lactate dehydrogenase (LDH), which will result in liver inflammation and necrosis. In this example, the APAP-induced liver injury was used to detect the protection and repair functions of our compounds in liver injury.
# One-year or 8-week age mice were maintained under environmentally controlled conditions with free access to standard chow diet and water. Animal experiments were conducted in the barrier facility of the Laboratory Animal Center, Xiamen University, approved by the Institutional Animal Use and Care Committee of Xiamen University, China.
# Compounds were solved with DMSO and then prepared to work concentration with 40% HBC (2-hydroxypropyl-β-cyclodextrin) in which the final work concentrations of compounds are 5 mg/kg body weight, 10 mg/kg or 20 mg/kg in 100 μl injection volume and the concentration of DMSO is 10%. Compounds were intraperitoneal (i.p.) injected once daily for five days. For Feroline and Tschimganine, one-year age mice were used in the experiment. For other compounds, 8-week age mice were used. […] For Tschimganine, 20 mg/kg dose of compound was administered to mice. For other compounds, 5 mg/kg dose of compounds were administered to mice. Six hours after the fifth injection, 500 mg/kg body weight of APAP solved in PBS was i.p. injected to the mice. 24 hours later, mice were sacrificed. Part of each liver was fixed in 4% paraformaldehyde, and the liver histology characterization was analyzed by haematoxylin and eosin (H&E) staining with paraffin-embedded sections by standard procedures. Other liver tissues were collected for detecting the GSH levels, and the mRNA expression of genes involved in liver repairing, such as GPX1 and UGT1a1, by RT-PCR. The serums were collected to measure enzymes activities including AST, ALT and LDH. For the synthetic derivatives, ALT and GSH were selected as indicating markers for the function of these compounds.
substance,measurement,setting,value
Hedragonic acid,Serum Insulin (ng/ml),db/db mice; vehicle 12 ± 3,4.65 ± 0.2^b ng/ml
same,Serum Glucose (mg/dl),db/db mice; vehicle 521 ± 54,334 ± 50^a mg/dl
same,GSH (μM),[1],72 ± 9^a μM
same,clearance rate to superoxide anion radical,[2],58%±6.4%
same,Serum Glucose (mg/dl),KK-Ay mice,161 ± 21^b mg/dl
same,Liver morphology by H&E staining (FIG. 1),"[3]; 10 mg/kg (Tschimganine 20 mg/kg) i.p. five days, then APAP, compared to severe liver injury in control group",almost normal liver morphology
same,expression levels of GPX1 and UGT1α1 in liver,"[3]; mRNA by RT-PCR, vs vehicle control group, Table 5 (not given)",significantly upregulated
same,"activities of serum AST, ALT and LDH","[3]; vs vehicle control group, Table 5 (not given)",dramatically lower
